From US20030228253A1, “Radiolabelled thioplatin, compositions thereof and methods of cancer treatment” (priority 2002, published 2003)
Entries after “also recorded” stand apart in the source; their conditions may differ.

Columns and labels:
human squamous carcinoma = conditions: nude mice bearing a human squamous carcinoma; cited from earlier work
DNA of tumor cells [1] = conditions: background statement; cited from earlier work
DNA of tumor cells [2] = test: DNA binding of platinum compounds; conditions: for DNA binding: pH 6.8 (solid tumor pH norm)
Description: ^195mPlatinum is cytotoxic by its release of “auger” electron at 33/disintegrations and with a half-life of over 4 days. In order to amplify the cytotoxicity of the tumor cells, the final drug radioactive thioplatin must be located on the DNA of tumor cells. […] Radioactive thioplatin can be quantitated in the clinic by nuclear SPECT scanning of the tumor and normal tissues for low-energy photons (65-129 kev) emitted by radioactive platinum.

[3] = Normal tissue toxicity in experimental animals (body weight, white blood cells, BUN, histopathology/biopsy of kidney and intestine); format: in vivo
Procedure: Thioplatin administered to experimental animals was assayed for the effects of the drug on body weight, white blood cells, BUN and histophathology of kidneys and small intestines.

[4] = tested on: human lung and colon cancer; test: Tumor cytotoxicity in human tumor xenografts in nude mice; format: in vivo
[5] = background statement; cited from earlier work

Compound | antitumor effect (tumor growth delay, log of tumor growth, area under the curve) (human squamous carcinoma) | binding of DNA (DNA of tumor cells [1]) | DNA binding (DNA of tumor cells [2]) | effect on BUN ([3]; experimental animals) | effect on body weight ([3]; experimental animals) | effect on white blood cells ([3]; experimental animals) | histopathology of kidneys and small intestines ([3]; experimental animals) | normal tissue toxicity compared to cisplatin ([3]; human tumor xenografts in nude mice, compared to the standard cisplatin) | tumor cytotoxicity ([4]; human tumor xenografts in nude mice, human lung and colon cancer) | pH dependence of cytotoxicity ([4]; tumor pH 6.8 versus normal pH 7.2 to 7.4) | DNA binding relative to cisplatin (DNA of tumor cells [2]; background statement, compared to cisplatin) | peripheral toxicity by direct biopsy of the kidney and intestinal tract [5]
N.N.[Cl][191Pt][Cl] [^191cisplatin] | cytotoxic to the tumor | – | – | – | – | – | – | – | – | – | – | –
N.N.[Cl][Pt][Cl] [cisplatin] | – | 14.3 nanograms/milligrams | 14.6 ng/mg | – | – | – | – | – | – | – | – | –
thioplatin | – | – | 13,870 ng/mg | negligible | negligible | negligible | negligible | reduced normal tissue toxicity | cytotoxic to human lung and colon cancer; also recorded: significant tumor cytotoxicity | most effective at an acidic pH | one-thousand | lack of normal tissue toxicity
